These results are taken from patent EP0384421A2, “Use of PAF antagonists in the treatment of pathologic changes of the blood gas” (BOEHRINGER INGELHEIM KG, priority 1989, dated 1990).

The subject of one assay is Methylparathion. Details: species or system Ratten. The settings on record: in vivo. From the text:
Die Bestimmung der Partialdrucke der nachfolgend aufgeführten Blutgase sowie die Bestimmung des pH-Wertes des Blutes sind ein Indiz dafür, daß eine Behandlungsmethode bei Organophosphorvergiftungen positiv anspricht.
In der Tabelle I sind der pH-Wert und die Partialdrucke von CO₂ und O₂ aufgeführt. Die Ergebnisse sind Mittelwerte die aus Versuchen an 6 bis 15 Ratten je Experiment erhalten wurden. […] Die Konzentration von Atropin und Web 2086 ist in der Tabelle angegeben und bezieht sich auf mg/kg i.v. Die Reihenfolge der Applikation ist in Spalte 1 der Tabelle angegeben. Die Blutentnahme erfolgt 5 Minuten nach der letzten Substanzgabe. Die Blutgas-Messung erfolgte mit einem "Corning-Blood-Gas-Analyser 178".

The next assay has as its system PAF. Briefly: Acid-base balance and blood gases in arterial blood of rats after PAF and a PAF antagonist. Format: in vivo, Ratten. Particulars: for BE / HCO3 / O2sat / TCO2 / pCO2 / pO2 / ph: PAF 10 µg/kg i.v., rats; for pH-Wert-Erniedrigung: pH decrease caused by PAF 10 µg/kg i.v.
The mark [1] stands for this setting: PAF antagonist 1000 ug/kg i.v., arterial blood.
The mark [2] stands for this setting: PAF antagonist 100 ug/kg i.v., arterial blood.

Values joined by “and” are separate entries in the source; they are usually repeats but may differ in a detail not shown here. Equal values may be shown once.

Take `CN1C2CCC1CC(OC(=O)C(CO)c1ccccc1)C2` (racemic) [Atropin, reference compound]: the pH in the assay with Methylparathion was 7,43 and 7,21 and 6,97.
`Cc1nnc2n1-c1sc(Br)cc1C(c1ccccc1Cl)=NC2` [Brotizolam, reference compound]: in the assay on PAF (10 mg/kg p.o.), the BE is -18,95, the HCO3 is recorded as 7,88, the O2sat is 95,48 and the TCO2 was 8,57. Further, in the assay with PAF (10 mg/kg p.o.), the pCO2 is listed as 22,22, the pO2 was 104,47 and the ph was 7,17. Besides, in the assay with PAF (30 mg/kg p.o.), the BE was -3,32, the HCO3 is 20,97, the O2sat is listed as 94,43 and the TCO2 is reported as 22,05. Also, in the assay with PAF (30 mg/kg p.o.), the pCO2 is recorded as 35,53, the pO2 was 87,42 and the ph is recorded as 7,37. Besides, in the assay on PAF (100 mg/kg p.o.), the BE is -7,94, the HCO3 is listed as 16,38, the O2sat is 95,18 and the TCO2 is given as 17,34. For the same compound, in the assay on PAF (100 mg/kg p.o.), the pCO2 is recorded as 30,60, the pO2 is 87,92 and the ph is reported as 7,33. Besides, the “Blutgas-stabilisierende Wirkung” value in the assay with PAF (10,30 und 100 mg/kg p.o., same experimental set-up) is “dosisabhängig”. In addition, the “durch PAF-verursachte pH Wert-Verminderung” value in the assay on PAF (30 und 100 mg/kg) is on record as “verhindert”. Moreover, the “Abnahme des CO₂-Partialdruckes und Abnahme des Basenüberschusses” value in the assay with PAF (30 und 100 mg/kg, PAF-induced) is “verhindert”.
For the compound `Cc1nnc2n1-c1sc3c(c1C(c1ccccc1Cl)=NC2)CC(CN1CCOCC1)C3` (centres unmarked) [STY 2108], in the assay on PAF (setting [1]), the BE was 0.42, the HCO3 came to 24.5, the O2sat came to 96.8 and the TCO2 was 25.8. In the assay with PAF (setting [1]), this compound returned a pCO2 of 39.5, a pO2 of 90.4 and a ph of 7.40. For the same compound, the pH-Wert-Erniedrigung result in the assay on PAF is reported as “verhindert”.
Turning to `Cc1nnc2n1-c1sc(CCC(=O)N3CCOCC3)cc1C(c1ccccc1Cl)=NC2` [WEB 2086, 4-(2-Chlorphenyl)-9-methyl-2-[3-(4-morpholinyl)-3-propanon-1-yl]-6H-thieno[3,2-f][1,2,4]triazolo[4,3-a][1,4]diazepin], in the assay on Methylparathion, the “Blutgaswerte bei Phosphorsäureestervergiftungen” value is recorded as “positiv beeinflußt”; the PCO2 was 73,0 and 58,9; the PO2 is 51,7 and 61,9; the pH is 7,25 and 7,07. Further, in the assay on PAF (setting [1]), the BE is given as -5.40, the HCO3 was 19.8, the O2sat is listed as 91.5 and the TCO2 came out at 20.9. In the assay on PAF (setting [1]), this compound displayed a pCO2 of 38.2, a pO2 of 72.8 and a ph of 7.32. The pH-Wert-Erniedrigung entry with PAF is listed as “verhindert”.
In the assay with PAF (setting [2]), `Cc1nnc2n1-c1sc3c(c1C(c1ccccc1Cl)=NC2)CC(C(=O)N1CCOCC1)C3` (centres unmarked) [WEB 2170, 6-(2-Chlorphenyl)-8,9-dihydro-1-methyl-8-[(4-morpholinyl)carbonyl]-4H,7H-cyclopenta[4,5]thieno[3,2-f][1,2,4]triazolo[4,3-a][1,4]diazepin] registered a BE of 0.18, an HCO3 of 22.9, an O2sat of 97.1 and a TCO2 of 23.9. In the assay on PAF (setting [2]), this compound yielded a pCO2 of 33.8, a pO2 of 89.8 and a ph of 7.44. In addition, in the assay with PAF, the pH-Wert-Erniedrigung entry is “verhindert”.
